Data: the supplement of paper PMC10307832

Columns and labels:
Experiment in all cases: relative viability (nuclei count vs DMSO), 5 days (fraction); higher = more cells survive
Midostaurin + Pictilisib = compound: CO[C@@H]1[C@H](N(C)C(=O)c2ccccc2)C[C@H]2O[C@]1(C)n1c3ccccc3c3c4c(c5c6ccccc6n2c5c31)C(=O)NC4 [Midostaurin] + CS(=O)(=O)N1CCN(Cc2cc3nc(-c4cccc5[nH]ncc45)nc(N4CCOCC4)c3s2)CC1 [Pictilisib] (partner 1 µM)
How it was run: (§1)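 Medians of duplicate plates are given as relative viability. That measure is the nuclei count in treated wells divided by the count in vehicle wells. Counts were taken on 4× images of lung cancer cell lines in 1536-well plates, 5 days after pin-tool dosing the day after seeding with one drug alone or a fixed anchor-drug dose plus five library-drug doses (not always all listed) in √10 steps.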

Midostaurin + AZD7762 = compound: CO[C@@H]1[C@H](N(C)C(=O)c2ccccc2)C[C@H]2O[C@]1(C)n1c3ccccc3c3c4c(c5c6ccccc6n2c5c31)C(=O)NC4 [Midostaurin] + NC(=O)Nc1cc(-c2cccc(F)c2)sc1C(=O)N[C@H]1CCCNC1 [AZD7762] (partner 0.2 µM)
How it was run: as §1

Midostaurin + Lapatinib = compound: CO[C@@H]1[C@H](N(C)C(=O)c2ccccc2)C[C@H]2O[C@]1(C)n1c3ccccc3c3c4c(c5c6ccccc6n2c5c31)C(=O)NC4 [Midostaurin] + CS(=O)(=O)CCNCc1ccc(-c2ccc3ncnc(Nc4ccc(OCc5cccc(F)c5)c(Cl)c4)c3c2)o1 [Lapatinib] (partner 2 µM)
How it was run: as §1

[1] = compound: COc1cc(-c2nn([C@H]3CC[C@H](N4CCN(C(C)=O)CC4)CC3)c3ncnc(N)c23)ccc1NC(=O)c1cc2ccccc2n1C + N=C(N)NC(=N)NCCc1ccccc1 [Phenformin] (partner 250 µM)
How it was run: as §1

Midostaurin + Trametinib = compound: CO[C@@H]1[C@H](N(C)C(=O)c2ccccc2)C[C@H]2O[C@]1(C)n1c3ccccc3c3c4c(c5c6ccccc6n2c5c31)C(=O)NC4 [Midostaurin] + CC(=O)Nc1cccc(-n2c(=O)n(C3CC3)c(=O)c3c(Nc4ccc(I)cc4F)n(C)c(=O)c(C)c32)c1 [Trametinib] (partner 0.02 µM)
How it was run: as §1

Cell Line | relative viability (Midostaurin + Pictilisib; first compound 0.01 µM) | relative viability (Midostaurin + Pictilisib; first compound 0.03162 µM) | relative viability (Midostaurin + Pictilisib; first compound 0.1 µM) | relative viability (Midostaurin + Pictilisib; first compound 0.3162 µM) | relative viability (Midostaurin + AZD7762; first compound 0.01 µM) | relative viability (Midostaurin + AZD7762; first compound 0.03162 µM) | relative viability (Midostaurin + AZD7762; first compound 0.1 µM) | relative viability (Midostaurin + AZD7762; first compound 0.3162 µM) | relative viability (Midostaurin + Lapatinib; first compound 0.01 µM) | relative viability (Midostaurin + Lapatinib; first compound 0.03162 µM) | relative viability (Midostaurin + Lapatinib; first compound 0.1 µM) | relative viability (Midostaurin + Lapatinib; first compound 0.3162 µM) | relative viability ([1]; first compound 0.0128 µM) | relative viability ([1]; first compound 0.04048 µM) | relative viability ([1]; first compound 0.128 µM) | relative viability ([1]; first compound 1.28 µM) | relative viability (Midostaurin + Trametinib; first compound 0.01 µM) | relative viability (Midostaurin + Trametinib; first compound 0.03162 µM) | relative viability (Midostaurin + Trametinib; first compound 0.1 µM) | relative viability (Midostaurin + Trametinib; first compound 0.3162 µM)
NCI-H1915 | 0.913 | 0.852 | 1.01 | 0.98 | 0.654 | 0.679 | 0.671 | 0.709 | 0.865 | 0.972 | 0.956 | 1.04 | 0.387 | 0.396 | 0.375 | 0.334 | 0.329 | 0.312 | 0.258 | 0.271
NCI-H1793 | 0.378 | 0.097 | 0.217 | 0.49 | 0.395 | 0.48 | 0.388 | 0.213 | 0.971 | 0.715 | 0.767 | 0.75 | 0.388 | 0.252 | 0.317 | 0.289 | 0.403 | 0.402 | 0.438 | 0.428
RERF-LC-KJ | 0.501 | 0.51 | 0.579 | 0.46 | 0.994 | 0.96 | 1.05 | 1.03 | 0.881 | 0.91 | 0.907 | 0.922 | 0.377 | 0.448 | 0.413 | 0.379 | 0.854 | 0.921 | 0.84 | 0.806
LXF-289 | 0.812 | 0.766 | 0.764 | 0.598 | 1.14 | 1.13 | 1.07 | 1.09 | 0.92 | 0.888 | 0.866 | 0.951 | 0.545 | 0.497 | 0.492 | 0.46 | 0.687 | 0.653 | 0.671 | 0.685
